Test results taken from patent publication US11718645B2, “Macrocyclic therapeutic agents, methods of manufacture, and methods of treatment” (University of Florida Research Foundation, Incorporated, priority 2014, dated 2023).

Key:
HCT116 xenograft = details: previous efficacious dose 0.25 mg/kg; cited from earlier work
HCT116 cells = experiment: Cell viability assay (MTT); assay type: cell-based, human; details: determined after 48 h (n = 4)
Description: (§1) Human colon adenocarcinoma HCT116 cells were purchased from ATCC (Manassas, Va.) and cultured in Dulbecco's modified Eagle's medium (Invitrogen, Carlsbad, Calif.) supplemented with 10% fetal bovine serum (HyClone, Logan, Utah) at 37° C. humidified air and 5% CO2.
HCT116 cells were seeded at a density of 1×10^4 cells per well in 96-well plates. 24 h later the cells were treated with various concentrations of apratoxins or solvent control. After 48 h of incubation, cell viability was detected using MTT according to the manufacturer's instructions (Promega, Madison, Wis.).

Microsomal stability = assay type: in vitro ADME, mouse
Description: HPLC-MS was done on a 3200 QTRAP (Applied Biosystems) equipped with a Shimadzu (Kyoto, Japan) UFLC System. Mouse serum and harmine were purchased from Sigma-Aldrich. Pooled CD1 mouse liver (female) microsomes were purchased from XenoTech, LCC (Lenexa, Kans.) with protein concentrations of 0.5 mg/ml. HCT116 cell lysates were prepared with PhosphoSafe lysis buffer (Novagen). Protein concentration was determined by using the BCA Assay. Analysis was carried out similarly as previously described [Liu, Y.; Salvador, L. A.; Byeon, S.; Ying, Y.; Kwan, J. C.; Law, B. K.; Hong, J.; Luesch. H. J. Pharmacol. Exp. Ther. 2010, 335, 351-361].
The stability of apratoxin A, S4 (BK), S7 (BL), S8 (BM) and S9 (BN) in the presence of mouse microsomes was determined by using an adaptation of a published procedure [Ackley, D. C.; Rockich, K. T.; Baker, T. R. Optimization in Drug Discovery: In Vitro Methods (Series: Methods in Pharmacology and Toxicology) (eds Yan Z, Caldwell J W) 2004, pp 151-162, Springer, New Jersey]. In brief, microsomes were added to prewarmed phosphate buffer (100 mM, pH 7.4) at 37° C. Apratoxin A, BK, BL, BM, or BN (3 μL) were added to the microsomal preparation followed by NADPH cofactor solution (1.3 mM NADP, 3.3 mM glucose 6-phosphate, 0.4 U/mL glucose-6-phosphate dehydrogenase, 3.3 mM MgCl2). The reaction was allowed to proceed for 3 min to 3 h (7 time points) at 37° C. (thermomixer, 1050 rpm). The reaction was quenched by addition of ethyl acetate and subsequently spiked with harmine. The zero time point was defined by denaturing the microsomes with ethyl acetate before the addition of apratoxins. Incubation of apratoxins with microsomes alone was also performed following the same procedure to determine NADPH-dependent metabolism. The final concentration of the incubation mixture contained 0.5 mg/ml protein concentration and 1 μM apratoxins.
(§2) Analysis of apratoxin A, S4 (BK), S7 (BL), S8 (BM) and S9 (BN) was done by using HPLC-MS [column, Onyx Monolithic C18 (3.0×100 mm), Phenomenex (Torrance, Calif.); solvent, water (solvent A) acetonitrile (solvent B); flow rate, 0.5 ml/min; detection by electrospray ionization-MS in positive ion mode (MRM scan)]. A stepwise gradient elution was used starting at 60% B and 40% A, then increasing to 80% B at 5 min and maintained at this condition for 5 min. Parameters were optimized before analysis by using direct syringe infusion. The retention times (tR, min; MRM ion pair) of the analytes and internal standard are as follows: harmine (2.2; 213.1→169.9), apratoxin A (4.7; 841.4→445.2), apratoxin S4 (BK) (4.1; 828.5→432.2), apratoxin S7 (BL) (4.05; 814.5→418.2), apratoxin S8 (BM) (5.2; 842.5→446.2), apratoxin S9 (BN) (4.9; 828.5→432.2). Compound-dependent parameters used were as follows: apratoxin A, declustering potential (DP) 51, entrance potential (EP) 12, collision energy (CE) 45, collision cell exit potential (CXP) 6, collision cell entrance potential (CEP) 32; and harmine, DP 56.0, EP 4.5, CE 44.0, CXP 5, CEP 16.0. Source gas parameters used were as follows: curtain gas, 15.0; collision gas low, ionspray voltage 5500; temperature, 600.0; ion source gas 150.0; ion source gas 2 60.0.
(§3) Calibration curves for apratoxin A, S4 (BK), S7 (BL), S8 (BM) and S9 (BN) in the presence of mouse serum, HCT116 cell lysates, and aqueous solutions were generated by least-square linear regression analysis of the analyte peak area and internal standard peak area ratio against the nominal concentration of the standard solutions. A linear regression analysis was performed, and the concentration of remaining apratoxins at each time point was determined through interpolation for plasma, cellular, and aqueous stability experiments. The amount of remaining apratoxins with microsome incubation was determined from the peak area ratio of apratoxins at tx (3 min to 3 h) and t0. All calculations were done by using Analyst 1.4.2 (Applied Biosystems) Quantitate Mode.

[1] = Cellular stability in HCT116 cell lysate; assay type: in vitro ADME, human; details: HCT116 protein lysate 0.7 mg/mL, up to 24 h, FIG. 2D
Description: Aliquots of HCT116 cell lysates were diluted with 25 mM Tris-HCl buffer, pH 8.0, to give a final reaction volume of 100 μL and protein concentration of 0.7 mg/mL. Cell lysate solutions were incubated with 10 μL of apratoxin A, BK, BL, BM, or BN (25 μg/mL) for 0.25 min to 24 h (nine time points). Remaining apratoxin A, BK, BL, BM, or BN were extracted from the reaction solution at the end of the incubation periods with ethyl acetate using the same procedure as described for the plasma stability assay.
as §2, §3

[2] = Plasma stability in mouse serum; assay type: in vitro ADME; details: up to 24 h, FIG. 2C
Description: In vitro plasma stability of apratoxin A, S4 (BK), S7 (BL), S8 (BM) and S9 (BN) was done by using a modification of a published method [Chen, X.; Gardner, E. R.; Figg, W. D. J. Chromatogr. B Analyt. Technol. Biomed. Life Sci. 2008, 86, 153-158]. Ten microliters of apratoxin A, BK, BL, BM, or BN (25 μg/mL) were added to 100 μL of mouse serum, and the solution was vortex-mixed for 15 s and incubated for 0.25 min to 24 h (11 time points). At the end of each incubation period, 400 μL of ethyl acetate was added to each tube, followed by 200 μL of harmine to quench the reaction and to extract the remaining apratoxin A or S4 (BK), S7 (BL), S8 (BM) and S9 (BN). Samples were further incubated in a thermomixer at 27° C. (750 rpm, 5 min) and later centrifuged for 5 min at 1643 g. The ethyl acetate layer was collected and evaporated to dryness under nitrogen. Samples were reconstituted in 50 μL of acetonitrile. A volume of 10 μL of the reconstituted solution was injected into the HPLC-MS system.
as §2, with “Compound-dependent parameters used were as follows: apratoxin A, declustering potential (DP) 51, entrance potential (EP) 12, collision energy (CE) 45, collision cell exit potential (CXP) 6, collision cell entrance potential (CEP) 32; and harmine, DP 56.0, EP 4.5, CE 44.0, CXP 5, CEP 16.0. Source gas parameters used were as follows: curtain gas, 15.0; collision gas low, ionspray voltage 5500; temperature, 600.0; ion source gas 150.0; ion source gas 2 60.0.” left out
as §3

VEGF-A secretion = experiment: Measurement of VEGF-A production (alphaLISA) in HCT116 culture supernatants; assay type: cell-based, human; details: determined after 12 h (n = 3)
Description: as §1
HCT116 cells (1×10^4 cells per well) were seeded in 96-well plates and one day later treated with various concentrations of apratoxins or solvent control. After 12 h of incubation, culture supernatants were collected for detection of VEGF-A by using an alphaLISA kit (PerkinElmer, Waltham, Mass.) following the manufacturer's instructions. Briefly, acceptor bead and anti-VEGF antibody were incubated first with the supernatants for 60 min, donor beads were added later and incubated for another 30 min and then VEGF-A levels detected using Envision (PerkinElmer).

For CC[C@H](C)[C@H]1C(=O)N2CCC[C@H]2C(=O)O[C@H](C(C)(C)C)C[C@@H](C)C[C@H](O)[C@H](C)C2=N[C@@H](CCC(=O)N[C@@H](Cc3ccc(OC)cc3)C(=O)N(C)[C@@H](C)C(=O)N1C)CS2 [apratoxin S4 (BK), Apratoxin S4], the “in vivo activity (previous study)” value (HCT116 xenograft) is given as “extremely potent and active in vivo”, the IC50 (HCT116 cells) is given as 1.43 nM and the “% remaining” value (Microsomal stability; microsomes + NADPH, 0 min) is given as 100%. The “% remaining” value (Microsomal stability; microsomes + NADPH, 3 min) was 39.55 ± 1.06%, the “% remaining” value (Microsomal stability; microsomes + NADPH, 5 min) was 32.20 ± 16.12% and the “% remaining” value (Microsomal stability; microsomes + NADPH, 15 min) was 10.07 ± 1.46%. For the same compound, the “% remaining” value (Microsomal stability; microsomes + NADPH, 30 min) was 9.58 ± 1.03%, the “% remaining” value (Microsomal stability; microsomes + NADPH, 60 min) was 10.00 ± 0.71% and the “% remaining” value (Microsomal stability; microsomes + NADPH, 120 min) was 6.02 ± 2.11%. For the same compound, the “% remaining” value (Microsomal stability; microsomes only, 0 min) was 100%, the “% remaining” value (Microsomal stability; microsomes only, 3 min) was 87.05 ± 1.63% and the “% remaining” value (Microsomal stability; microsomes only, 5 min) was 70.80 ± 23.48%. For the same compound, the “% remaining” value (Microsomal stability; microsomes only, 15 min) was 87.20 ± 2.83%, the “% remaining” value (Microsomal stability; microsomes only, 30 min) was 73.85 ± 15.49% and the “% remaining” value (Microsomal stability; microsomes only, 60 min) was 87.10 ± 1.41%. The “% remaining” value (Microsomal stability; microsomes only, 120 min) was 55.25 ± 12.09%, the cellular stability [1] was “excellent” and the plasma stability [2] was “excellent”. It also gave an IC50 (VEGF-A secretion) of 0.32 nM.
